Experimental data taken from patent publication US20260083815A1, “COMPOSITION FOR INHIBITING TOXICITY OF NANOPARTICLES AND ENVIRONMENTALLY-DERIVED FINE PARTICLES” (AJOU UNIVERSITY INDUSTRY-ACADEMIC COOPERATION FOUNDATION, priority 2019, published 2026).
Where two headings read alike, the source gives them in different places.

Columns and labels:
microglia [1] = details: 24 hours
Procedure: After the cells were suspended, the number of cells was measured and adjusted to the same cell number. The cells became luminescent according to the amount of ATP using a luciferin-based ATP luminescence measurement kit (Promega, USA), the luminescence degree was measured by a luminometer (LMaxII384; Molecular Devices, USA), and ChemiDoc™ Touch Gel Imaging System (Bio-Rad) was used for imaging.

microglia [2] = details: 24 hours; remark: listed apart in the source
Procedure: Microglia cultured by the cell culture method of Example 1 was treated with 0.1 μg/μl of MNPs@SiO2(RITC) (average diameter of 50 nm), silica nanoparticles (SiO2, average diameter of 50 nm), silver nanoparticles (Ag, average diameter of 20 nm), gold nanoparticles (Au, average diameter of 10 nm), quantum dot nanoparticles (CdSe, average diameter of 10 nm), polystyrene microplastics (PS, average diameter of 2 μm and 100 nm), urban particulate matters (UPM, NIST 1648A), silica nanoparticles (SiO2, average diameter of 30 nm), titanium oxide nanoparticles (TiO2, average diameter of 40 nm), and carbon nanotubes (MWCNT, average diameter of 25 nm) for 24 hours, and then images were taken using fluorescence and optical microscopes (Axio Vert 200M fluorescence microscopy, Zeiss, Jena, Germany). Fluorescence of MNPs@SiO2(RITC) (average diameter of 50 nm) and quantum dot nanoparticles (CdSe, average diameter of 10 nm) which are fluorescent were photographed also.

microglia [3] = details: 0.1 μg/μl of each of 11 nanoparticles/particulate matters, 24 hours, formazan absorbance at 490 nm
Procedure: Microglia cultured by the cell culture method of Example 1 were treated with 0.1 μg/μl of MNPs@SiO2(RITC) (average diameter of 50 nm), silica nanoparticles (SiO2, average diameter of 50 nm), silver nanoparticles (Ag, average diameter of 20 nm), gold nanoparticles (Au, average diameter of 10 nm), quantum dot nanoparticles (CdSe, average diameter of 10 nm), polystyrene microplastics (PS, average diameter of 2 μm and 100 nm), urban particulate matters (UPM, NIST 1648A), silica nanoparticles (SiO2, average diameter of 30 nm), titanium oxide nanoparticles (TiO2, average diameter of 40 nm), and carbon nanotubes (MWCNT, average diameter of 25 nm) for 24 hours, a kit (CellTilter 96 Aqueous One Solution Cell Proliferation Assay, Promega Corporation, Madison, WI) for analyzing cell viability based on the activity of succinic dehydrogenase was mixed, and the degree of formazan formation in accordance with the cell viability was measured with absorbance at 490 nm.

O=C(O)CC(O)(CC(=O)O)C(=O)O [citric acid]
ATP reduction induced by MNPs@SiO2(RITC) (microglia [1]; 0.01 or 0.1 μg/μl MNPs@SiO2(RITC), luminescence): inhibited | ATP increase compared to group treated only with MNPs@SiO2(RITC) (microglia [1]; co-treated with 0.1 μg/μl MNPs@SiO2(RITC) (50 nm)): 30% | decrease in the cell number due to particles (microglia [2]; 0.1 μg/μl MNPs@SiO2(RITC)): mitigated | decrease in the cell number due to particles (microglia [2]; 0.1 μg/μl gold nanoparticles (Au, 10 nm)): mitigated | decrease in the cell number due to particles (microglia [2]; 0.1 μg/μl polystyrene microplastics (PS, 2 μm)): mitigated | decrease in the cell number due to particles (microglia [2]; 0.1 μg/μl polystyrene microplastics (PS, 100 nm)): mitigated | decrease in the cell number due to particles (microglia [2]; 0.1 μg/μl quantum dot nanoparticles (CdSe, 10 nm)): mitigated | decrease in the cell number due to particles (microglia [2]; 0.1 μg/μl silica carbon nanotubes (MWCNT, 25 nm)): mitigated | decrease in the cell number due to particles (microglia [2]; 0.1 μg/μl silica nanoparticles (SiO2, 30 nm)): mitigated | decrease in the cell number due to particles (microglia [2]; 0.1 μg/μl silica nanoparticles (SiO2, 50 nm)): mitigated | decrease in the cell number due to particles (microglia [2]; 0.1 μg/μl silver nanoparticles (Ag, 20 nm)): mitigated | decrease in the cell number due to particles (microglia [2]; 0.1 μg/μl titanium oxide nanoparticles (TiO2, 40 nm)): mitigated | decrease in the cell number due to particles (microglia [2]; 0.1 μg/μl urban particulate matters (UPM, NIST 1648A)): mitigated | reduction in cell viability due to nanoparticles and particulate matters (microglia [3]): mitigated
